Source: patent publication US4510142A, “Derivatives of biphenyl alkyl carboxylates and their use as medicaments” (Pierre Fabre S.A., priority 1981, dated 1985)
Where a name gives a salt, the structure may show the parent alone. Read-outs that look alike come from different tables or passages of the source.

Key:
[1] = test system: carragenine oedema, rat's foot; assay: anti-inflammatory oedema test by injecting carragenine into a rat's foot (Winter, Ribley and Nuss); assay type: in vivo
Description: Winter, E. Ribley and G. Nuss--Proc. Soc. Exper. Biol. Med., 1962, 111, 544 547.
The products were administered orally in suspension in a Tween-water mixture 2 hours before the experiment. All the administered compounds have a good anti-inflammatory activity. It will particularly be noted that the compound of Example 14 has a DE50 of 3 mg/kg.

[2] = in vivo; details: mouse, in vivo, po
Description: (§1) A toxicity study was carried out on conventional mice weighing about 20 grams.
(§2) The compounds corresponding to the general formula I according to the present invention and the pharmaceutically acceptable salts thereof were administered orally. The DL50 was calculated according to the method by L. C. Miller and M. L. Tainter--Proc. Soc. Exper.

[3] = test system: pain (phenyl benzoquinone injection); assay: pain-killing activity according to Siegmund (phenyl benzoquinone injection); assay type: in vivo; details: oral, 30 minutes before injection of phenyl benzoquinone; read-out: DE50 (pain-killing activity)
Description: The pain-killing activity was studied according to Siegmund--J. Pharm. Exptl. ther., 1957, 119,453.
The compounds according to the present invention were administered orally 30 minutes before the injection of phenyl benzoquinone.

[4] = test system: conventional mice; assay: in vivo; details: p.o.; comparison products
Description: as §1, §2

[5] = Rattus norvegicus, po, read-out: DE50 (carragenine)
[6] = Rattus norvegicus, po, comparison products, read-out: DE50 (carragenine)

## CC(=O)Oc1ccccc1C(=O)O [Aspirin]
[1]; [5]
  ED50: 135 mg/kg

## CC(C(=O)OCC(=O)N1CCN(C)CC1)c1ccc(-c2ccccc2Cl)cc1 (stereo not drawn) [Example 12, 2-(4-methylpiperazino)-2-oxoethyl 2-(2'-chloro-4-biphenylyl)propionate hydrochloride]
[2]
  LD50: > 500 mg/kg
[3]
  ED50: 7 mg/kg

## CC(C(=O)OCC(=O)N1CCC(c2ccccc2)CC1)c1ccc(-c2ccccc2Cl)cc1 (stereo not drawn) [Example 14, 2-(4-phenylpiperidino)-2-oxoethyl 2-(2'-chloro-4-biphenylyl)propionate]
[2]
  LD50: > 500 mg/kg
[3]
  ED50: 5 mg/kg
[1]; rat, oral suspension in Tween-water, 2 hours before the experiment, read-out: DE50 (anti-inflammatory activity)
  ED50: 3 mg/kg

## CC(C)Cc1ccc(C(C)C(=O)O)cc1 (stereo not drawn) [Ibuprofen]
[1]; [6]
  ED50: 14 mg/kg

## COc1ccc2c(c1)c(CC(=O)O)c(C)n2C(=O)c1ccc(Cl)cc1 [Indometacine]
[4]
  LD50: 20 mg/kg
[1]; [5]
  ED50: 4 mg/kg

## COc1ccc2cc([C@H](C)C(=O)O)ccc2c1 [Naproxen]
[1]; [6]
  ED50: 5 mg/kg

## Phenylbutanone
[4]
  LD50: 400 mg/kg
[1]; p.o., comparison products
  DE50 (carragenine): 30 mg/kg
